Data as given in publication PMC10856618, “Research on the Interaction Mechanism and Structural Changes in Human Serum Albumin with Hispidin Using Spectroscopy and Molecular Docking” (Molecules, 2024).

Target: T1, human serum albumin (HSA) (Homo sapiens, UniProt P02768)
T1 construct: gene ALB; commercial HSA (Solarbio), mature plasma protein, 585 residues, 66,500 Da
Assay: intrinsic fluorescence quenching titration (ex […] nm)
Assay type: binding
Details: 298 K, pH 7.4 Tris-HCl, 0.1 mol/L NaCl, 5 µmol/L HSA; n = 1.04; double-log; mainly site I (subdomain IIA)

T1 sequence (P02768 25-609): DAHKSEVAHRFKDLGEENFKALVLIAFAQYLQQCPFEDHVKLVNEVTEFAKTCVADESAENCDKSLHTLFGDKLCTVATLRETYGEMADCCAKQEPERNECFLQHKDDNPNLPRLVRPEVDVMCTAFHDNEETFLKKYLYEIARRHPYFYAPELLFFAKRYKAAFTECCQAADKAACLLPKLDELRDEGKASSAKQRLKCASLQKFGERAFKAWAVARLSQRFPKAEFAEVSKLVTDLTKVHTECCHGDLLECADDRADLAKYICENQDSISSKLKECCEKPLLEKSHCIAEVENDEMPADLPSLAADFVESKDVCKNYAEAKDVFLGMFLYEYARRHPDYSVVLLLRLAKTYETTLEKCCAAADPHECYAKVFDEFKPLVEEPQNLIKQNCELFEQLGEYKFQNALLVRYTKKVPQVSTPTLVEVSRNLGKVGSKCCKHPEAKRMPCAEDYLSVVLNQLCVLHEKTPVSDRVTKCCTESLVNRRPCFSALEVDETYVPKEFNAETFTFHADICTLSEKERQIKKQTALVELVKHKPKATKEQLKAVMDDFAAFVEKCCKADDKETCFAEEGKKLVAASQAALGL

O=c1cc(O)cc(/C=C/c2ccc(O)c(O)c2)o1 [hispidin]
Ka (10^5 L/mol): 1.03 × 10^5 L/mol
